{
  "source": "patent US10590056B2",
  "about": "“ERR modulators and uses thereof” (CITY OF HOPE, priority 2017, dated 2020)",
  "key": {"Human ERα": {"biological_target": "T1, Human ERα (Homo sapiens, UniProt P03372)", "T1 construct": "Human ERα and ERβ were examined as full-length proteins using an estrogen receptor responsive reporter construct; expressed in transfected cells; host or cells: CV-1 cells, cytomegalovirus-driven expression vectors", "T1 sequence (P03372 1-595)": "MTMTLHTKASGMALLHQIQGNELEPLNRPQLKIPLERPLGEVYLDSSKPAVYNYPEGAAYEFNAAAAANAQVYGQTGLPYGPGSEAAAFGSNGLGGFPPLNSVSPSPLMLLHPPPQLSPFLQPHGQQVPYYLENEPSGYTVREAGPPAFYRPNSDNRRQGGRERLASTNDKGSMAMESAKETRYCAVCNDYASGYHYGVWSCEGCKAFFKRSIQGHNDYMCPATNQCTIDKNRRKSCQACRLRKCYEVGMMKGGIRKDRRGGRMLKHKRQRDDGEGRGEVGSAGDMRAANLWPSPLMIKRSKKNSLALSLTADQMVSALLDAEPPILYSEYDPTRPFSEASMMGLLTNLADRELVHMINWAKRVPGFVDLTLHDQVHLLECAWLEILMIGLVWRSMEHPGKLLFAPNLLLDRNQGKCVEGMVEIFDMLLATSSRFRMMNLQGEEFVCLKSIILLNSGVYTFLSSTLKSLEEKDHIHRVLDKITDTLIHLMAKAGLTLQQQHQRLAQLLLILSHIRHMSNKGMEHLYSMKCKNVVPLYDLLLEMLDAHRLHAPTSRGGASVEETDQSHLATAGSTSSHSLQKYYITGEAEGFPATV", "test": "Full-length ERα, estrogen receptor responsive reporter assay in CV-1 cells", "assay_type": "cell-based", "settings": "selectivity evaluation", "method": "Cell based transactivation assays were performed in CV-1 cells as described.^49 ERR activity was assayed with a GAL4 reporter construct and fusion proteins containing the ligand binding domains of human ERRα, human ERRβ and mouse ERRγ linked to the DNA binding domain of yeast GAL4. Human ERα and ERβ were examined as full-length proteins using an estrogen receptor responsive reporter construct. Reporter constructs (300 ng/10^5 cells) and cytomegalovirus-driven expression vectors (20-50 ng/10^5 cells) were added as indicated along with CMX-β-gal (500 ng/10^5 cells) as an internal control. Cells were transiently transfected by Lipofectamine as described.^56 Cells were incubated with DNA complexed liposomes for 2 hours and subsequently treated for approximately 45 hr with phenol red free DMEM FBS containing the indicated compounds. After exposure to ligand, the cells were harvested and assayed for luciferase and β-galactosidase activity. All points were assayed in triplicate and varied by less than 15%. Each experiment was repeated three or more times with similar results. Fold activation is reported."}, "[1]": {"tested_on": "ERRγ target gene SHP (NR0B2)", "test": "Endogenous SHP (NR0B2) expression by real-time PCR in 293 HEK cells expressing ERRγ via adenovirus", "assay_type": "cell-based, human", "settings": "293HEK over-expressing ERRγ, 100 nM, 48 hours", "method": "(§1) FIGS. 7A-7C. […] FIG. 7A. 293 HEK cells expressing either GFP or ERRγ via adenoviral transduction were treated with either vehicle (DMSO) or 100 nM DY40 for 48 hours. Expression of endogenous SHP (NR0B2) was quantitated by real-time PCR. Values are normalized to β-actin transcript and reported relative to GFP untreated levels (=1.0). Data represent mean±S.E.M. for 3 independent trials. FIG. 7B. C2C12 myotubes were treated with either vehicle or 100 nM DY40 for 48 hours. Expression of endogenous SHP was measured by quantitative real-time PCR. Values are normalized to 36b4 (Rp1p0) transcript and reported relative to expression in DMSO treated cells (=1.0). Data represent mean±S.E.M. for 3 independent trials. *, P<0.05 DMSO versus DY40 treated values. FIG. 7C. C2C12 myotubes were treated with either vehicle or 100 nM DY40 for 48 hours. Oxidation of ^3H-palmitate-BSA was measured as described in Methods. Values are normalized to total cellular protein and reported relative to expression in DMSO treated cells (=1.0). […]\n(§2) Validation of DY40 effects on endogenous ERRγ target gene expression and metabolism in cell based models. […] We also evaluated the effects of the compound in C2C12 myotubes that have significant endogenous ERRγ expression. […]\n(§3) Experimental transcript levels were normalized to 36B4 ribosomal RNA analyzed in separate reactions. […]"}, "ERRγ target gene SHP": {"tested_on": "ERRγ target gene SHP", "test": "Endogenous SHP transcript by real-time PCR in C2C12 myotubes", "assay_type": "cell-based, mouse", "settings": "100 nM, 48 hours, vs DMSO", "method": "as §1, §2, §3"}, "C2C12 myotubes": {"tested_on": "C2C12 myotubes", "test": "Fatty acid oxidation assay (3H-palmitate-BSA) in C2C12 myotubes", "assay_type": "cell-based", "settings": "100 nM, 48 hours, compared to vehicle-treated controls", "method": "as §1, with “Methods.” for “Methods. Values are normalized to total cellular protein and reported relative to expression in DMSO treated cells (=1.0).”\nThe analysis of fatty acid oxidation rates in cells was performed as previously described.^57 Fatty acid ^3H-[9,10]-palimitic acid was complexed to fatty acid-free BSA and this complex was added to 30 uM unlabeled palmitate. […] The substrate was removed and radiolabeled aqueous metabolites (^3H2O) released to the media were measured by scintillation counting. The calculated rates were normalized to total cellular protein."}},
  "data": [
    {"smiles": "CC(=O)Oc1ccc(/C(=C(/c2ccccc2)C(C)C)c2ccc(OCCN(C)C)cc2)cc1", "note": "[Compound 4a, (E)-4-{1-[4-(2-dimethylamino-ethoxy)-phenyl]-3-methyl-2-phenyl-but-1-enyl}-phenyl acetate]", "values": [
      {"measurement": "ERα antagonist activity, in words", "setting": "Human ERα", "result": "remains an antagonist potency of ERα"},
      {"measurement": "ERRγ mediated induction of SHP transcript", "setting": "[1]", "result": "completely blocked"},
      {"measurement": "repression of endogenous SHP transcript levels", "setting": "ERRγ target gene SHP", "result": "~60", "unit": "%"},
      {"measurement": "change in palmitate oxidation rates", "setting": "C2C12 myotubes", "result": "−42", "unit": "%"}
    ]}
  ]
}
